Values joined by “and” are separate entries in the source; they are usually repeats but may differ in a detail not shown here. Equal entries are not always repeated.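 Test compounds were applied to cells in 96-well plates for 48 hours at 5 doses. Here, GI50 denotes the concentration required for 50% inhibition of growth. TGI: concentration producing complete growth inhibition.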
Key:
Experiment in all cases: NCI-60 cell line screen, 48 h
[1] = tested on: HOP-92 NSCLC
[2] = tested on: NCI-H23 lung
[3] = tested on: OVCAR-4 ovarian
[4] = tested on: MOLT-4 leukemia
[5] = tested on: SK-MEL-5 melanoma
[6] = tested on: OVCAR-8 ovarian
[7] = tested on: MDA-MB-435
[8] = tested on: UACC-257 melanoma
[9] = tested on: MALME-3M melanoma
[10] = tested on: T-47D breast

| SMILES | GI50 [1] [µM] | TGI [1] [µM] | GI50 [2] [µM] | TGI [2] | GI50 [3] [µM] | TGI [3] | GI50 [4] | TGI [4] | GI50 [5] | TGI [5] | GI50 [6] | TGI [6] [µM] | GI50 [7] | TGI [7] | GI50 [8] [µM] | TGI [8] | GI50 [9] [µM] | TGI [9] | GI50 [10] [µM] | TGI [10] |
| --- | --- | --- | --- | --- | --- | --- | --- | --- | --- | --- | --- | --- | --- | --- | --- | --- | --- | --- | --- | --- |
| CCS(=O)(=O)N1CCN(c2ccc(Nc3ncc(C(N)=O)c(NC4CC4)n3)cc2)CC1 | 4.9 | > 100 | 5.46 | > 100 µM | 12.1 | > 100 µM | 2.7 µM | 16.5 µM | 3.13 µM | 26.6 µM | 5.62 µM | 88.1 | 5.6 µM | > 100 µM | 21.2 | > 100 µM | 20 | 85.2 µM | 2.88 | 13.9 µM |
| COC(=O)[C@H](CCCCNC(=O)OCc1ccccc1)NC(=O)[C@@H](NC(=O)Nc1cc(C(F)(F)F)cc(C(F)(F)F)c1)C(C)C | > 10 | > 10 | > 10 | > 10 µM | > 10 | > 10 µM | > 10 µM | > 10 µM | > 10 µM | > 10 µM | > 10 µM | > 10 | > 10 µM | > 10 µM | > 10 | > 10 µM | > 10 | > 10 µM | > 10 | > 10 µM |
| Nc1no[n+]([O-])c1-c1nnc2c(n1)-c1ccccc1C2=O | 2.21 | 6.63 | 1.88 | 4.35 µM | 1.42 | 2.74 µM | 2.38 µM | 6.21 µM | 1.66 µM | 3.13 µM | 3.19 µM | 10.4 | 1.91 µM | 3.82 µM | 1.93 | 3.98 µM | 1.74 | 3.45 µM | 1.91 | 5.35 µM |
| C1=C\CCCCN2CC[C@H]3[C@H](CCCC/C=C\CCCN4C[C@@H](CCCCC/1)C[C@@H]3C4)C2 | 4.04 | 20.1 | 14.3 | 30.2 µM | 8.84 | 27.5 µM | 3.67 µM | 17.4 µM | 4.75 µM | 16.7 µM | 10.8 µM | 25.3 | 1.73 µM | 3.26 µM | 1.74 | 3.5 µM | 2.13 | 5.43 µM | 10 | 27.4 µM |
| Cc1nn(-c2ccccc2)c2nc(C)n(-c3ccc(Br)cc3)c(=O)c12 | 0.579 | 68 | 0.823 | > 100 µM | 1.56 | > 100 µM | 0.53 µM | > 100 µM | 0.516 µM | 11.1 µM | 0.965 µM | > 100 | 0.226 µM | 0.684 µM | 0.768 | > 100 µM | 12.1 | 76.9 µM | 0.427 | > 70.5 µM |
| C=C1C(=O)O[C@H]2[C@H]1CC/C(COC(=O)N[C@H](Cc1c[nH]c3ccccc13)C(=O)OC)=C\CC[C@@]1(C)O[C@@H]21 | 1.94 | 5.87 | 4.3 | 17.7 µM | 6.44 | 20.4 µM | 2.5 µM | 7.54 µM | 7.03 µM | 20.5 µM | 2.8 µM | 9.13 | 2.52 µM | 10 µM | 2.89 | 8.74 µM | 1.95 | 4.24 µM | 1.94 | 5.06 µM |
| Cc1cc(OCc2nn(CN3CCN(C)CC3)c(=S)n2/N=C/c2ccc(F)cc2)ccc1Cl | 17.8 | 37.6 | 16.9 | 31.1 µM | 6.86 | 22 µM | 14.7 µM | 34.9 µM | 16.7 µM | 30.6 µM | 18 µM | 32.2 | 18 µM | 36.2 µM | 19.2 | 36.7 µM | 22.8 | 43.4 µM | 17 | 39.7 µM |
| NC(=O)c1ncn2c(=O)n(CCCl)nnc12 |  | 408 | > 72.8 | 330 µM | > 69.4 | 437 µM | 37.2 µM | 567 µM |  | 324 µM |  | 426 |  | 388 µM |  | 391 µM |  | 346 µM |  | 941 µM |
| COc1ccc2c(c1)C(=O)c1c-2n(CCCCl)c(=O)c2cc(N)ccc12 | 21.2 | > 100 | > 100 | > 100 µM | > 96.7 | > 100 µM | > 54.6 µM | > 100 µM | 51 µM | > 100 µM | > 100 µM | > 100 | > 100 µM | > 100 µM | > 100 | > 100 µM | > 100 | > 100 µM | > 100 | > 100 µM |
| CCN(CC)CCCNc1cc(OC)c(OC)c2cccnc12 | 28.4 | 62.8 | 1.85 | 26.1 µM | 1.68 | 3.18 µM | 3.27 µM | 8.88 µM | 5.67 µM | 19.9 µM | 13.3 µM | 35.5 | 3.05 µM | 14.4 µM | 4.55 | 22.4 µM | 12.8 | 31.1 µM | 16.4 | 42 µM |
| O=C(COc1cccc(/C=C2\Oc3ccc4ccccc4c3C2=O)c1)c1ccc([N+](=O)[O-])cc1 | 12.9 | 35.9 | 21 | 80.8 µM | 20 | 60.3 µM | 13.3 µM | 38.6 µM | 13 µM | 34.8 µM | 14.2 µM | 37.2 | 28.9 µM | > 100 µM | > 100 | > 100 µM | 14.7 | 43 µM | 12.6 | 38.3 µM |
| CC1(C)CC[C@]2(CO)CC[C@]3(C)C(=CC[C@@H]4[C@@]5(C)CCNCC(C)(C)[C@@H]5CC[C@]43C)[C@@H]2C1 | 1.4 | 4.14 | 12.5 | 26.9 µM | 7.66 | 24 µM | 4.41 µM | 18.7 µM | 1.86 µM | 3.64 µM | 4.77 µM | 24.8 | 3.01 µM | 8.9 µM | 2.33 | 5.79 µM | 1.69 | 3.71 µM | 2.42 | 11.2 µM |
| C=C1C(O)C2CC(C)(C)C(=O)C2=C(CC(C)C)C12CC2 (configuration not stated) | > 100 | > 100 | > 100 | > 100 µM | > 100 | > 100 µM | 72 µM | > 100 µM | > 100 µM | > 100 µM | > 100 µM | > 100 | > 100 µM | > 100 µM | > 100 | > 100 µM | > 100 | > 100 µM | > 100 | > 100 µM |
| OCC1OC(n2cnc3c(NCc4ccco4)ncnc32)C(O)C1O (configuration not stated) | 0.442 | 5.1 | 2.87 | 31.8 µM | 2.8 | 18.8 µM | 0.585 µM | 6.25 µM | 9.36 µM | > 74.1 µM | 0.16 µM | 3.6 | 2.08 µM | 15.1 µM | 52.5 | > 100 µM | 5.91 | 48.1 µM | 2.43 | 11.3 µM |
| COc1cc(/C=C/c2ccnc3ccccc23)cc(OC)c1OC | 2.07 | 9.08 |  | 6.92 µM and 9.64 µM | 4.41 | 45.5 µM and > 100 µM | 2.47 µM | 13.4 µM and 26.2 µM |  | 10.5 µM and 11.5 µM | 4.17 µM | > 100 | 0.355 µM | 1.87 µM and 1.85 µM |  | 91.6 µM and > 100 µM | 3.88 | 42.5 µM and > 100 µM | 6.58 | 80.4 µM and > 100 µM |
| CCC(C)C(=O)OC1CCC=C2C=CC(C)C(CCC3CC(O)CC(=O)O3)C21 (configuration not stated) | 0.79 | > 100 |  | > 100 µM |  | > 100 µM |  | > 100 µM |  | > 100 µM |  | > 100 |  | > 100 µM |  | > 100 µM |  | > 100 µM |  | > 100 µM |
| Oc1ccc(/C=N/NC(=S)Nc2cccnc2)nc1 |  | 59.6 |  | 61.9 µM |  | > 100 µM |  | 15 µM |  | > 100 µM |  | 12.6 |  | > 100 µM |  | 76.9 µM |  | 9.12 µM |  | > 100 µM |
| NC(Cc1c[nH]c2cccc(F)c12)C(=O)O (configuration not stated) | 4110 | > 4500 |  | 3180 µM |  | > 4500 µM | 41.7 µM and 338 µM | > 4500 µM | 20.1 µM and 154 µM | 54.7 µM and 458 µM | 72.5 µM and 522 µM | 2820 | 50.9 µM and 189 µM | > 4500 µM | 1380 | > 4500 µM | 2600 | > 4500 µM |  | > 4500 µM |
| C/C(=N\NC(=S)N1CCN(c2ccccn2)CC1)c1cccc2cccnc12 |  | 52.3 |  | > 100 µM |  | > 100 µM |  | > 62.2 µM |  | > 43.2 µM |  | > 100 |  | > 100 µM |  | > 100 µM |  | > 100 µM |  | > 87.6 µM |
| C/C=C(\C)C(=O)O[C@@H]1C=CC(=O)O[C@H]1CNC(=O)[C@H](C)O | 17.4 | 37.5 | 25.6 | > 75.4 µM | 19 | 42.9 µM |  | 5.35 µM | 19.6 µM | 38.8 µM | 30.5 µM | > 100 | 22.6 µM | 82.1 µM | 26.9 | > 84.4 µM | 15 | 32.8 µM | 21.9 | > 66.8 µM |
| O=C(O)c1[nH]c2c([N+](=O)[O-])cc([N+](=O)[O-])cc2c1C(=O)O |  | > 100 |  | > 100 µM |  | > 100 µM |  | > 100 µM |  | > 100 µM |  | > 100 |  | > 100 µM |  | > 100 µM |  | > 100 µM |  | > 100 µM |
| CCC(=C(c1ccc(OCCN2CCCC2)cc1)c1ccc(OCCN2CCCC2)cc1)c1ccc(Cl)cc1 | 0.482 | 1.04 | 0.667 | 1.38 µM | 0.667 | 1.43 µM | 0.592 µM | 1.32 µM | 0.6 µM | 1.07 µM | 0.692 µM | 1.57 | 0.552 µM | 1.03 µM | 0.595 | 1.18 µM | 0.564 | 1.07 µM | 0.498 | 1.21 µM |
